According to DBAASP:
Values after ≈ are worked out from the molar mass of the structure shown. Values joined by “and” are separate entries in the source; they are usually repeats but may differ in a detail not shown here. Identical values can stand only once.

Assays:
Assay in all cases: ≥ marks a high value that may be exact or a test limit, other limits are often not marked, values filed in µg/mL are converted to µM
Pseudomonas aeruginosa = test system: Pseudomonas aeruginosa
Staphylococcus aureus = test system: Staphylococcus aureus
Escherichia coli = test system: Escherichia coli
Escherichia coli UB1005 = test system: Escherichia coli UB1005
[1] = test system: Staphylococcus aureus ATCC 25923
[2] = test system: Pseudomonas aeruginosa PAO1
[3] = test system: Escherichia coli ATCC 25922
[4] = test system: Klebsiella pneumoniae ATCC 700603
[5] = test system: Staphylococcus epidermidis ATCC 12228
Bacillus subtilis = test system: Bacillus subtilis
[6] = test system: Staphylococcus aureus ATCC 29213
[7] = test system: Pseudomonas aeruginosa ATCC 27853
[8] = test system: Candida albicans ATCC 90028
[9] = test system: Staphylococcus aureus ATCC 43300

Q: For CC[C@H](C)[C@H](N)C(=O)N[C@@H](CC(N)=O)C(=O)N[C@@H](Cc1c[nH]c2ccccc12)C(=O)N[C@@H](CCCCN)C(=O)N[C@@H](CCCCN)C(=O)N[C@H](C(=O)N[C@@H](Cc1ccccc1)C(=O)N[C@@H](CCC(=O)O)C(=O)N[C@@H](CCCCN)C(=O)N[C@H](C(=O)N[C@@H](CCCCN)C(=O)N[C@@H](CC(N)=O)C(=O)N[C@@H](CC(C)C)C(=O)N[C@H](C(N)=O)C(C)C)C(C)C)[C@@H](C)CC [INWKKIFEKVKNLV], which MIC (Pseudomonas aeruginosa) is on record?
A: 86.6 µM (≈ 152 µg/mL)

Q: What about the MIC (Staphylococcus aureus) of the same compound?
A: 11.8 µM (≈ 20.7 µg/mL)

Q: And the MIC (Escherichia coli)?
A: 7.5 µM and 6.25 µM and 3.12 µM

Q: Which results are given for CC[C@H](C)[C@H](NC(=O)[C@H](CCCN=C(N)N)NC(=O)[C@H](CCCN=C(N)N)NC(=O)[C@@H]1CCCN1C(=O)[C@H](Cc1ccc(O)cc1)NC(=O)[C@H](CCCN=C(N)N)NC(=O)[C@@H]1CCCN1C(=O)[C@H](CCCN=C(N)N)NC(=O)[C@@H]1CCCN1C(=O)[C@H](CC(C)C)NC(=O)[C@H](Cc1ccc(O)cc1)NC(=O)[C@@H]1CCCN1C(=O)[C@@H]1CCCN1C(=O)[C@H](CCCCN)NC(=O)[C@H](CC(=O)O)NC(=O)[C@@H](N)C(C)C)C(=O)N[C@@H](Cc1ccc(O)cc1)C(=O)N[C@@H](CC(N)=O)C(=O)N[C@@H](CCCN=C(N)N)C(N)=O [VDKPPYLPRPRYPRRIYNR]?
A: MIC (Escherichia coli UB1005): 2.04 µM (≈ 5 µg/mL); MIC [1]: 13 µM (≈ 32 µg/mL); MIC [2]: 52.1 µM (≈ 128 µg/mL)

Q: What does the source list for CC[C@H](C)[C@H](NC(=O)[C@@H](NC(=O)[C@@H]1CCCN1C(=O)[C@@H](NC(=O)[C@@H]1CCCN1C(=O)[C@H](CCCCN)NC(=O)[C@H](CCCCN)NC(=O)[C@H](CO)NC(=O)CN)C(C)C)[C@@H](C)CC)C(=O)N[C@@H](Cc1ccc(O)cc1)C(=O)N[C@H]1CSSC[C@@H](C(=O)N[C@@H](CCC(N)=O)C(=O)N[C@@H](CCCN=C(N)N)C(=O)N[C@@H](CCSC)C(=O)O)NC(=O)[C@H](CCCCN)NC(=O)CNC(=O)[C@H]([C@@H](C)O)NC(=O)[C@H](CCCN=C(N)N)NC(=O)[C@H](CCCN=C(N)N)NC(=O)[C@H](CCC(N)=O)NC1=O [GSKKPVPIIYCQRRTGKCQRM]?
A: MIC [3]: 1.63 µM (≈ 4 µg/mL); MIC [4]: 3.27 µM (≈ 7.99 µg/mL)

Q: For CC(C)C[C@H](NC(=O)[C@H](Cc1ccc(O)cc1)NC(=O)[C@H](Cc1ccc(O)cc1)NC(=O)CNC(=O)[C@H](Cc1c[nH]c2ccccc12)NC(=O)[C@H](CO)NC(=O)[C@H](CO)NC(=O)[C@H](Cc1c[nH]c2ccccc12)NC(=O)[C@H](CC(C)C)NC(=O)[C@H](CCCCN)NC(=O)[C@@H](NC(=O)[C@@H](NC(=O)[C@H](CC(C)C)NC(=O)[C@@H](N)CC(=O)O)[C@@H](C)O)[C@@H](C)O)C(=O)NCC(=O)O [DLTTKLWSSWGYYLG], which MIC [5] is on record?
A: 25 µM (≈ 44.8 µg/mL)

Q: With CC[C@H](C)[C@H](N)C(=O)N[C@@H](CC(N)=O)C(=O)N[C@@H](Cc1c[nH]c2ccccc12)C(=O)N[C@@H](CC(C)C)C(=O)N[C@@H](CCCCN)C(=O)N[C@@H](CC(C)C)C(=O)NCC(=O)N[C@@H](CCCCN)C(=O)N[C@@H](CCCCN)C(=O)N[C@@H](CCSC)C(=O)N[C@@H](CCSC)C(=O)N[C@@H](CO)C(=O)N[C@@H](C)C(=O)N[C@@H](CC(C)C)C(=O)O [INWLKLGKKMMSAL] as the compound, how does the MIC (Escherichia coli) read?
A: 100 µM (≈ 163 µg/mL)

Q: What about the MIC (Bacillus subtilis) of the same compound?
A: 22.5 µM (≈ 36.7 µg/mL)

Q: CC[C@H](C)[C@H](NC(=O)[C@H](CCCN=C(N)N)NC(=O)[C@H](CCC(N)=O)NC(=O)[C@@H](NC(=O)[C@@H](NC(=O)[C@H](CCCN=C(N)N)NC(=O)[C@H](C)N)[C@@H](C)CC)C(C)C)C(=O)N[C@@H](CCCCN)C(=O)N[C@@H](CC(=O)O)C(=O)N[C@@H](Cc1ccccc1)C(=O)N[C@@H](CC(C)C)C(=O)N[C@@H](CCCN=C(N)N)C(=O)O [ARIVQRIKDFLR] was tested. Which MIC [6] did it give?
A: 40 µM (≈ 60.6 µg/mL)

Q: What about the MIC [3] of the same compound?
A: 40 µM (≈ 60.6 µg/mL)

Q: What about the MIC [7] of the same compound?
A: 40 µM (≈ 60.6 µg/mL)

Q: And the MIC [8]?
A: ≥ 40 µM

Q: How did the MIC [6] turn out when CC[C@H](C)[C@H](NC(=O)[C@H](C)NC(=O)[C@H](CCC(N)=O)NC(=O)[C@@H](NC(=O)[C@@H](NC(=O)[C@H](CCCN=C(N)N)NC(=O)[C@@H](N)CCCCN)[C@@H](C)CC)C(C)C)C(=O)N[C@@H](CCCCN)C(=O)N[C@@H](CC(=O)O)C(=O)N[C@@H](Cc1ccccc1)C(=O)N[C@@H](CC(C)C)C(=O)N[C@@H](CCCN=C(N)N)C(=O)O [KRIVQAIKDFLR] was run?
A: 40 µM (≈ 59.5 µg/mL)

Q: What about the MIC [3] of the same compound?
A: 40 µM (≈ 59.5 µg/mL)

Q: What about the MIC [7] of the same compound?
A: 40 µM (≈ 59.5 µg/mL)

Q: And the MIC [8]?
A: ≥ 40 µM

Q: For CC(C)C[C@H](NC(=O)[C@H](CCCCN)NC(=O)[C@H](C)N)C(=O)N[C@@H](Cc1c[nH]c2ccccc12)C(=O)N[C@@H](CC(C)C)C(=O)N[C@@H](CCCCN)C(=O)N[C@@H](C)C(=O)N[C@@H](C)C(=O)N[C@@H](CCCCN)C(=O)N[C@@H](CC(C)C)C(=O)N[C@@H](Cc1c[nH]c2ccccc12)C(=O)N[C@@H](CC(C)C)C(=O)N[C@@H](CCCCN)C(=O)N[C@@H](C)C(N)=O [AKLWLKAAKLWLKA], which MIC [9] is on record?
A: 16 µM (≈ 26.2 µg/mL)

Q: With CC[C@H](C)[C@H](NC(=O)[C@H](CO)NC(=O)[C@H](C)NC(=O)[C@@H](NC(=O)[C@@H](N)CCCCN)[C@@H](C)CC)C(=O)NCC(=O)N[C@@H](CCCCN)C(=O)N[C@@H](CCC(=O)O)C(=O)N[C@H](C(=O)N[C@@H](CC(C)C)C(=O)N[C@@H](CCCCN)C(=O)N[C@@H](C)C(=O)N[C@@H](CC(C)C)C(N)=O)C(C)C [KIASIGKEVLKAL] as the compound, how does the MIC (Escherichia coli) read?
A: 100 µM (≈ 137 µg/mL)

Q: What about the MIC (Bacillus subtilis) of the same compound?
A: ≥ 100 µM

Q: Which results are given for CC(C)C[C@H](NC(=O)[C@H](CC(C)C)NC(=O)[C@H](C)NC(=O)[C@H](CCCCN)NC(=O)[C@H](C)NC(=O)[C@H](C)NC(=O)[C@H](C)NC(=O)[C@H](CC(C)C)NC(=O)[C@H](Cc1c[nH]c2ccccc12)NC(=O)[C@H](CCCCN)NC(=O)[C@H](C)NC(=O)[C@H](CC(C)C)NC(=O)[C@H](CC(C)C)NC(=O)[C@H](CCCCN)NC(=O)[C@H](CCCCN)NC(=O)[C@H](CC(C)C)NC(=O)[C@H](C)NC(=O)[C@@H](N)CCCCN)C(N)=O [KALKKLLAKWLAAAKALL]?
A: MIC (Pseudomonas aeruginosa): 12.2 µM (≈ 23.8 µg/mL); MIC (Staphylococcus aureus): 1.5 µM (≈ 2.92 µg/mL); MIC (Escherichia coli): 6.1 µM (≈ 11.9 µg/mL)

Q: For CC(C)C[C@H](NC(=O)[C@H](Cc1ccc(O)cc1)NC(=O)[C@@H]1CCCN1C(=O)[C@@H]1CCCN1C(=O)[C@H](CCCCN)NC(=O)[C@H](CCCN=C(N)N)NC(=O)[C@@H](N)C(C)C)C(=O)N1CCC[C@H]1C(=O)N[C@@H](CCCN=C(N)N)C(=O)N1CCC[C@H]1C(=O)N[C@@H](CCCN=C(N)N)C(=O)N[C@@H](Cc1c[nH]c2ccccc12)C(=O)N1CCC[C@H]1C(=O)N[C@@H](CCCN=C(N)N)C(=O)N[C@@H](CCCN=C(N)N)C(=O)N[C@@H](Cc1ccccc1)C(=O)N[C@@H](Cc1ccc(O)cc1)C(=O)N[C@@H](CC(N)=O)C(=O)N[C@@H](CCCN=C(N)N)C(N)=O [VRKPPYLPRPRWPRRFYNR], which MIC (Escherichia coli UB1005) is on record?
A: 0.979 µM (≈ 2.5 µg/mL)

Q: And the MIC [1]?
A: 0.391 µM (≈ 1 µg/mL)

Q: What about the MIC [2] of the same compound?
A: 3.13 µM (≈ 8 µg/mL)

Q: CC(C)C[C@H](NC(=O)[C@H](C)NC(=O)[C@H](CC(C)C)NC(=O)[C@@H](N)CCCCN)C(=O)N[C@@H](CCCCN)C(=O)N[C@@H](C)C(=O)N[C@@H](C)C(=O)N[C@@H](CC(C)C)C(=O)N[C@@H](CCCCN)C(=O)N[C@@H](C)C(=O)N[C@@H](Cc1c[nH]c2ccccc12)C(=O)N[C@@H](CCCCN)C(=O)N[C@@H](C)C(=O)N[C@@H](C)C(=O)N[C@@H](C)C(=O)N[C@@H](CCCCN)C(=O)N[C@@H](CC(C)C)C(=O)N[C@@H](C)C(N)=O [KLALKAALKAWKAAAKLA] was tested. Which MIC (Pseudomonas aeruginosa) did it give?
A: 45 µM (≈ 83.9 µg/mL)

Q: And the MIC (Staphylococcus aureus)?
A: 45 µM (≈ 83.9 µg/mL)

Q: What about the MIC (Escherichia coli) of the same compound?
A: 7.78 µM (≈ 14.5 µg/mL)

Q: What does the source list for CC[C@H](C)[C@H](NC(=O)[C@H](CCCN=C(N)N)NC(=O)[C@H](CCCN=C(N)N)NC(=O)[C@@H]1CCCN1C(=O)[C@H](CCCN=C(N)N)NC(=O)[C@H](CCCN=C(N)N)NC(=O)[C@@H]1CCCN1C(=O)[C@H](CCCN=C(N)N)NC(=O)[C@@H]1CCCN1C(=O)[C@H](CC(C)C)NC(=O)[C@H](Cc1ccc(O)cc1)NC(=O)[C@@H]1CCCN1C(=O)[C@@H]1CCCN1C(=O)[C@H](CCCCN)NC(=O)[C@H](CC(=O)O)NC(=O)[C@@H](N)C(C)C)C(=O)N[C@@H](Cc1ccc(O)cc1)C(=O)N[C@@H](CC(N)=O)C(=O)N[C@@H](CCCN=C(N)N)C(N)=O [VDKPPYLPRPRRPRRIYNR]?
A: MIC (Escherichia coli UB1005): 1.02 µM (≈ 2.5 µg/mL); MIC [1]: 13.1 µM (≈ 32 µg/mL); MIC [2]: 52.2 µM (≈ 128 µg/mL)

Q: Which results are given for CC[C@H](C)[C@H](N)C(=O)N[C@@H](Cc1c[nH]c2ccccc12)C(=O)N[C@@H](CCCN=C(N)N)C(=O)N[C@H](C(=O)N[C@@H](Cc1ccccc1)C(=O)N[C@@H](CCCN=C(N)N)C(=O)N[C@@H](CCCN=C(N)N)C(=O)N[C@H](C(=O)N[C@@H](Cc1ccccc1)C(=O)N[C@@H](CCCN=C(N)N)C(=O)N[C@H](C(=O)N[C@@H](Cc1ccccc1)C(=O)N[C@H](C(=O)N[C@@H](CCCN=C(N)N)C(=O)N[C@@H](Cc1ccccc1)C(N)=O)[C@@H](C)CC)[C@@H](C)CC)[C@@H](C)CC)[C@@H](C)CC [IWRIFRRIFRIFIRF]?
A: MIC [6]: 8 µM (≈ 17.1 µg/mL); MIC [3]: 16 µM (≈ 34.2 µg/mL); MIC [7]: 16 µM (≈ 34.2 µg/mL); MIC [5]: 4 µM (≈ 8.55 µg/mL)

Q: Which MIC [9] does the source give for CC(C)C[C@H](NC(=O)[C@H](CCCCN)NC(=O)CN)C(=O)N[C@@H](Cc1c[nH]c2ccccc12)C(=O)N[C@@H](CC(C)C)C(=O)N[C@@H](CCCCN)C(=O)NCC(=O)NCC(=O)N[C@@H](CCCCN)C(=O)N[C@@H](CC(C)C)C(=O)N[C@@H](Cc1c[nH]c2ccccc12)C(=O)N[C@@H](CC(C)C)C(=O)N[C@@H](CCCCN)C(=O)NCC(=O)NCC(=O)N[C@@H](CCCCN)C(=O)N[C@@H](CC(C)C)C(=O)N[C@@H](Cc1c[nH]c2ccccc12)C(=O)N[C@@H](CC(C)C)C(=O)N[C@@H](CCCCN)C(=O)NCC(N)=O [GKLWLKGGKLWLKGGKLWLKG] here?
A: 32 µM (≈ 75.7 µg/mL)
